From the supplement of paper PMC13380429

Experiments:
Details in all cases: 72 h
Calu-3 [1] = test: cell viability relative to DMSO; higher = less toxic
Vero E6 [2] = test: as above
Caco-2 [3] = test: as above
U2OS [4] = test: as above
Calu-3 [5] = test: drug sensitivity score (DSS) for viability; higher = more toxic; extreme values may be limits of the assay
Vero E6 [6] = test: as above
Caco-2 [7] = test: as above
U2OS [8] = test: as above
Calu-3 [9] = test: relative viability EC50 (midpoint between 100% and the lowest measured viability); higher = less toxic
Vero E6 [10] = test: as above
Caco-2 [11] = test: as above
U2OS [12] = test: as above
HepG2 [13] = test: cell viability relative to DMSO; higher = less toxic
HepG2 [14] = test: drug sensitivity score (DSS) for viability; higher = more toxic; extreme values may be limits of the assay

| SMILES | cell viability (Calu-3 [1]; 1 nM) | cell viability (Calu-3 [1]; 10 nM) | cell viability (Calu-3 [1]; 100 nM) | cell viability (Calu-3 [1]; 1000 nM) | cell viability (Calu-3 [1]; 10000 nM) | cell viability (Vero E6 [2]; 1 nM) | cell viability (Vero E6 [2]; 10 nM) | cell viability (Vero E6 [2]; 100 nM) | cell viability (Vero E6 [2]; 1000 nM) | cell viability (Vero E6 [2]; 10000 nM) | cell viability (Caco-2 [3]; 1 nM) | cell viability (Caco-2 [3]; 10 nM) | cell viability (Caco-2 [3]; 100 nM) | cell viability (Caco-2 [3]; 1000 nM) | cell viability (Caco-2 [3]; 10000 nM) | cell viability (U2OS [4]; 1 nM) | cell viability (U2OS [4]; 10 nM) | cell viability (U2OS [4]; 100 nM) | cell viability (U2OS [4]; 1000 nM) | cell viability (U2OS [4]; 10000 nM) | drug sensitivity score (Calu-3 [5]) | drug sensitivity score (Vero E6 [6]) | drug sensitivity score (Caco-2 [7]) | drug sensitivity score (U2OS [8]) | relative viability EC50 (Calu-3 [9]) | relative viability EC50 (Vero E6 [10]) | relative viability EC50 (Caco-2 [11]) | relative viability EC50 (U2OS [12]) | cell viability (HepG2 [13]; 1 nM) | cell viability (HepG2 [13]; 10 nM) | cell viability (HepG2 [13]; 100 nM) | cell viability (HepG2 [13]; 1000 nM) | cell viability (HepG2 [13]; 10000 nM) | drug sensitivity score (HepG2 [14]) |
| --- | --- | --- | --- | --- | --- | --- | --- | --- | --- | --- | --- | --- | --- | --- | --- | --- | --- | --- | --- | --- | --- | --- | --- | --- | --- | --- | --- | --- | --- | --- | --- | --- | --- | --- |
| CCOC(=O)c1cc(C#N)c(N2CCC(C(=O)NS(=O)(=O)Cc3ccccc3)CC2)nc1C [AZD1283] | 96.2% | 104% | 112% | 97.2% | 104% | 103% | 106% | 100% | 104% | 99.5% | 98.4% | 94.3% | 101% | 95.5% | 97% | 95.7% | 100% | 105% | 91.2% | 101% | 0 | 0 | 0 | 0 | > 10 µM | > 10 µM | > 10 µM | > 10 µM |  |  |  |  |  |  |
| O=C(Nc1cccc(Nc2ncc(Br)c(NCCc3cnc[nH]3)n2)c1)N1CCCC1 [BX-912] | 108% | 95.4% | 104% | 102% | 91.2% | 97.7% | 93.5% | 94.4% | 95.8% | 91.5% | 103% | 93.4% | 102% | 94.6% | 101% | 102% | 93.2% | 97.5% | 98.3% | 55.9% | 0 | 0 | 0 | 2.5 | > 10 µM | > 10 µM | > 10 µM |  | 103% | 91.8% | 103% | 82.3% | 55.8% | 4.7 |
| CCCCCCCCCCCCCCOc1ccc(C(=O)O)o1 [KD-023] |  |  |  |  |  | 102% | 102% | 100% | 99% | 78.4% | 95% | 92.9% | 105% | 92.5% | 82.5% | 97.4% | 97.4% | 101% | 95.8% | 103% |  | 0.8 | 1.1 | 0 |  | > 10 µM | > 10 µM | > 10 µM | 99.8% | 103% | 103% | 105% | 69.9% | 1 |
| Cc1ccc(NC(=O)CCCCCC(=O)Nc2ccccc2N)cc1 [TC-H-106] | 98.5% | 99.7% | 92.9% | 87.4% | 59.4% | 105% | 102% | 98.2% | 102% | 77.6% | 103% | 97% | 97.6% | 96.2% | 81.9% | 101% | 96.4% | 98.4% | 95.7% | 80.3% | 3.4 | 0.6 | 0.9 | 1.1 |  | > 10 µM | > 10 µM | > 10 µM | 99.7% | 109% | 98.9% | 93.4% | 57.3% | 3.3 |
| CCCCNNC(=O)c1ccc(Br)cc1 [UF-010] | 101% | 98.2% | 96.8% | 95.6% | 64.2% | 104% | 98.9% | 101% | 102% | 69.6% | 99.5% | 91.9% | 92.8% | 101% | 84.3% | 100% | 104% | 100% | 99.8% | 70.2% | 2.4 | 1.2 | 0.3 | 1.3 |  |  | > 10 µM |  | 106% | 94% | 105% | 88% | 61.5% | 3.6 |
| COC(=O)C1=C(C)NC(C)=C(C(=O)O[C@H]2CCN(Cc3ccccc3)C2)[C@H]1c1cccc([N+](=O)[O-])c1 [barnidipine] | 100% | 99.4% | 99.8% | 95.9% | 82.4% | 87.7% | 88.6% | 105% | 106% | 87.7% | 108% | 92.8% | 102% | 105% | 73.1% | 98.6% | 103% | 97.5% | 98.2% | 88.8% | 0.9 | 0 | 0.8 | 0.1 | > 10 µM | > 10 µM |  | > 10 µM | 105% | 105% | 85.1% | 95.6% | 73.8% | 1.4 |
| O=C(c1ccccc1)C(O)c1ccccc1 (stereo not given) [benzoin] |  |  |  |  |  |  |  |  |  |  |  |  |  |  |  |  |  |  |  |  | 0 | 0 |  | 0 |  |  |  |  |  |  |  |  |  | 0.3 |
| CC(OC(=O)OC1CCCCC1)OC(=O)C1=C(CSc2nnnn2CCN(C)C)CS[C@@H]2[C@H](NC(=O)Cc3csc(N)n3)C(=O)N12 (stereo not given in full) [cefotiam-cilexetil] | 96.4% | 90% | 99.1% | 96.9% | 109% |  |  |  |  |  | 82.3% | 93.3% | 96.8% | 113% | 117% | 96.5% | 102% | 98.4% | 99.5% | 94.8% | 0 |  | 0 | 0 | > 10 µM |  | > 10 µM | > 10 µM |  |  |  |  |  |  |
